Results reported in US20250041382A1, “ANTIVIRAL COMPOSITION COMPRISING OCTOMININ” (priority 2023, published 2025).
Several values for one entry are separate records, joined by “and”; a condition that tells them apart may be missing. Identical values can stand only once. Peptide text beside a SMILES is read from it.

What was measured:
IHNV (RtPy91 strain) = assay: microbe, parasite or virus in culture
Procedure: (§1) Specifically, three major fish pathogenic viruses VHSV (F1Wa05 strain), IHNV (RtPy91 strain), and IPNV (VR299 strain) were used to study the antiviral activity of Octominin. Octominin at various concentrations reacted with an equal amount of virus (infectious titer: 200 TCID50/mL) at 15° C. for 1 hour. Thereafter, the reactant was overlaid onto quadruplicate FHM cells in a 96-well plate (1×10^5 cells/mL) and incubated for 96 hours.
(§2) CPE was scored by optical microscopy using a DIAPHOT 300 inverted microscope (Nikon Cooperation, Tokyo, Japan) (score 0, 0% CPE; score 1, 10 to 20% CPE; score 2, 30 to 40% CPE; score 3, 50 to 60% CPE; score 4, 70 to 80% CPE; and score 5, 90 to 100%). The results were expressed as a 50% effective concentration (EC50) and calculated using Microsoft Excel software. Ribavirin, a known broad-spectrum antiviral agent, was used as a positive control group. The antiviral activity of Octominin was evaluated by calculation using Equation SI (selective index)=CC50/EC50.

IPNV (VR299 strain) = assay: microbe, parasite or virus in culture
Procedure: as §1, §2

VHSV (F1Wa05 strain) = assay: Cytopathic effect (CPE) reduction assay, VHSV in FHM cells
Procedure: as §1, §2

in vitro [1] = format: cell-based
in vitro [2] = format: cell-based; conditions: fathead minnow
[3] = fathead minnow (Pimephales promelas), 96 h

In the case of `CC[C@H](C)[C@H](NC(=O)[C@H](C)NC(=O)[C@H](CCCCN)NC(=O)CNC(=O)[C@H](C)NC(=O)[C@H](Cc1c[nH]cn1)NC(=O)[C@@H](NC(=O)[C@H](C)NC(=O)CNC(=O)[C@H](CCCNC(=N)N)NC(=O)[C@@H](NC(=O)[C@H](CC(C)C)NC(=O)[C@H](Cc1c[nH]c2ccccc12)NC(=O)CN)[C@@H](C)CC)[C@@H](C)CC)C(=O)N[C@@H](Cc1c[nH]cn1)C(=O)NCC(=O)N[C@@H](CC(C)C)C(=O)N[C@H](C(=O)N[C@@H](Cc1c[nH]cn1)C(=O)N[C@@H](CCCNC(=N)N)C(=O)N[C@@H](CCCNC(=N)N)C(=O)N[C@@H](CCCNC(=N)N)C(=O)N[C@@H](Cc1c[nH]cn1)C(=O)O)[C@@H](C)CC` [Octominin] (H-GWLIRGAIHAGKAIHGLIHRRRH-OH), the “SI (selective index)=CC50/EC50” value (IHNV (RtPy91 strain); [3]) is reported as 4.9, the “SI (selective index)=CC50/EC50” value (IPNV (VR299 strain); Chinook salmon (Oncorhynchus tshawytscha), 96 h) is reported as 2.0 and the “SI (selective index)=CC50/EC50” value (VHSV (F1Wa05 strain); [3]) is reported as 2.9. The CC50 (in vitro [1]; Chinook salmon (Oncorhynchus tshawytscha)) was 1870 µg/mL and 990 µM.
In the case of `NC(=O)c1ncn([C@@H]2O[C@H](CO)[C@@H](O)[C@H]2O)n1` [Ribavirin], the EC50 (IHNV (RtPy91 strain); Infectious hematopoietic necrosis virus, 96 h) is reported as 550 nM, the selectivity ratio at 96 h (IHNV (RtPy91 strain); fathead minnow) is reported as 1750 and the selectivity ratio at 96 h (IPNV (VR299 strain); Chinook salmon) is reported as 162. It also gave an EC50 (IPNV (VR299 strain); Infectious pancreatic necrosis virus, CHSE-214) of 750 nM, an EC50 (VHSV (F1Wa05 strain); Viral hemorrhagic septicemia virus, 96 h) of 270 nM and a selectivity ratio at 96 h (VHSV (F1Wa05 strain); fathead minnow, FHM cells infected with VHSV (F1Wa05 strain)) of 3560. The CC50 (in vitro [1]; Chinook salmon) was 121000 nM and the CC50 (in vitro [2]) was 962000 nM.
